Columns and labels:
human plasma protein = details: plasma concentration range of 0.5-250 μm/ml; decreases with increase of plasma concentration; cited from earlier work
[1] = Effects of different dissolution media on release rate of sustained-release pellet of topiramate; type: physicochemical; details: artificial gastric fluid with pH of 1.2; degradation reaction
Procedure: In order to verify whether acidic, basic solvent media would influence the release rate of the sustained-release pellets of the present invention, 0.1 mol/L HCl (pH1.2) was prepared as artificial gastric fluid, […] phosphate buffer (pH6.8) was prepared as artificial intestinal fluid, and these media and water (500 ml) were used as release media separately, and rotation speed was 100 rpm, 37° C. 5 ml of Samples (supplemented with equivalent volume of media at the meantime) were separately taken at 1, 2, 4, 8, 12, 16, 20, 24 h, filtrated, and the subsequent filtrates were used as test solutions. High performance liquid chromatography (Appendix V D, Part II, Chinese Pharmacopoeia, 2010 Edition) was used, octylsilane-bonded silica gel was used as packing agent, 50% methanol was mobile phase, differential refractive detector was used, and flow rate was 1.5 ml per minute. 200 μl of test solution was taken and injected in liquid chromatography, and the peak area of topiramate as main drug was recorded; moreover, topiramate was taken as reference material and measured by the same method, and accumulative release percentages of drug at different time points were calculated by external standard method. The release profile of sample of Batch 1 in Example 6 (2) in the above mentioned media were drawn, and the results were shown in FIG. 2.

[2] = cited from earlier work
[3] = cited from earlier work; remark: listed apart in the source

Structure (SMILES): CC1(C)O[C@@H]2[C@@H](CO[C@@]3(COS(N)(=O)=O)OC(C)(C)O[C@@H]23)O1 [Topiramate, 2,3,4,5-bis-O-(1-methylethylidene)-β-D-fructopyranose sulfamate]
- Human plasma protein binding ratio (human plasma protein): 15-41%
- Stability of topiramate in artificial gastric fluid [1]: unstable
- Plasma half-life ([2]; human, in vivo): 19 to 25 h
- Clearance for oral administration ([2]; oral administration): 22 to 36 mL/min
- Solubility in organic solvents ([3]; acetone, chloroform, dimethylsulfoxide and ethanol): freely soluble
- Solubility in alkaline solution ([3]; pH of 9-10, sodium hydroxide or sodium phosphate solutions): very freely soluble

From patent publication US9421188B2, “Combination product comprising phentermine and topiramate, and preparation method thereof” (Institute of Pharmacology and Toxicology Academy of …, priority 2012, dated 2016)
